Experimental data as given in US7763652B2, “Prostaglandin derivatives” (Taisho Pharmaceutical Co., Ltd., priority 2002, dated 2010).

Test system: male cynomolgus monkeys
Assay: Sleep-inducing test by cisternal administration
Format: in vivo
Details: cisternal infusion; for Sleep time: sleep time over three hours after administration, four male cynomolgus monkeys; for Number of slept animals: three hours after administration
Procedure: Sleep-Inducing Test by Cisternal Administration
Four male cynomolgus monkeys weighing 2.0-3.5 kg were individually placed in cages. The behaviors of the respective animals were recorded by videotape from one hour before drug administration to three hours after drug administration. Compound 16 was dissolved in physiological saline solution and sterilized using a Minipore filter. The drug was cisternally infused into the monkeys anesthetized with isoflurane inhalation. The dose was 10 μg/0.1 ml per monkey and 100 μg/0.1 ml per monkey. The same dose of the vehicle was infused cisternally to the control group. The test schedule was carried out according to the following protocol.
Week 1: Group treated with vehicle
Week 2: Group treated with 10 μg of Compound 16/monkey
Week 3: Group treated with 100 μg of Compound 16/monkey
The sleep times at three hours after administration were determined by playing back the recorded videotape and measuring the times (second) during which the animals relaxed with their both eyes closed, which are shown in Table 2.

## O=C(O)C#CCCSCC1C(Cl)CC(O)C1C#CC(O)C1CCCCC1 (stereo not drawn) [Compound 16, 9-Deoxy-9β-chloro-16,17,18,19,20-pentanor-15-cyclohexyl-2,2,3,3,13,14-hexadehydro-6-thia-PGF1α]
10 μg/0.1 ml per monkey
  Sleep time: 293 s
  Number of slept animals: 3/4
100 μg/0.1 ml per monkey
  Sleep time: 1734 s
  Number of slept animals: 4/4
